Experimental data taken from patent US12467917B2, “Reconstructing human early embryogenesis in vitro with pluripotent stem cells” (California Institute of Technology, priority 2021, dated 2025).

Key:
Format in all cases: cell-based, human
hEPSCs = assay: Screening of growth factors and inhibitors in hEPSC 3D culture; settings: grown for 5 days without the named substance (condition 2 / condition 3)
Method: Next, various growth factors, cytokines, and small molecules were screened at widely adopted concentrations, to identify conditions facilitating cavity and early-lineage formation in these structures (FIG. 7A-FIG. 7E). […] Additionally, the cells were pulsed with the ALK5 kinase inhibitor A83-01 (2 μM) to promote TE differentiation for the first 48h of 3D culture, and this inhibitor was removed after this time to avoid a complete loss in pluripotency. Concomitantly, the concentration of FGF2 was decreased by half (20 ng/ml) for the same purpose. Using this optimized condition, the emergence of cavitated structures was observed, 3 to 4 days after cell seeding (FIG. 1D).
Post incubation on gelatin plates, cells were counted using a haemocytometer and a total of 7200 hEPSCs was added to 1 mL of media composed of 50% IVF media (Continuous Single Culture-NX Complete (CSCM-NXC)) (90168, FUJIFILM), 25% hEP media, and 25% hTS media. This media was also supplemented with CHIR99021 (2 μM), Y27632 (5 μM), BMP4 (20 ng/mL), FGF2 (40 ng/mL), and A83-01 (2 μM). Cell suspensions were added dropwise to the Aggrewells. All wells without cells were filled with 1 mL PBS to humidify the local atmosphere to minimize evaporation. The AggreWell plate (24-well, 1200 Aggrewell format) was then centrifuged for 3 min at 100 g, and placed at 37° C. under hypoxic conditions (5% CO2 and 5% O2). […]

hEPSC aggregates = assay: PLC inhibition in hEPSC 3D cultures: immunofluorescence quantification of nuclear GATA3 and apical PARD6; settings: hEPSC 3D cultures treated with 2 μM and 3 μM, vs control without inhibitor
Method: The PLC-Protein Kinase C (PKC) pathway controls cellular polarisation at early stages of mouse embryo development. hEPSC 3D cultures were treated with 2 μM and 3 μM of the PLC inhibitor, U73122. […] To confirm the relationship between polarisation and outer cell commitment, siRNA transfection was used to knockdown (KD) PLCB1 in order to deplete PLC activity in cells during 3D aggregation (FIG. 2F). The depletion of PLC activity was confirmed by qRT-PCR to confirm that RNAi depletion of PLCB1 was effective (FIG. 8C).
Post incubation on gelatin plates, cells were counted using a haemocytometer and a total of 7200 hEPSCs was added to 1 mL of media composed of 50% IVF media (Continuous Single Culture-NX Complete (CSCM-NXC)) (90168, FUJIFILM), 25% hEP media, and 25% hTS media. This media was also supplemented with CHIR99021 (2 μM), Y27632 (5 μM), BMP4 (20 ng/mL), FGF2 (40 ng/mL), and A83-01 (2 μM). […]
Fluorescence images were acquired with an inverted Leica SP8 confocal microscope (Leica Microsystems), using a Leica Fluotar VISIR 0.95 NA 25× objective. […] Digital quantifications and immunofluorescence signal intensity graphs were obtained using Fiji software.
Apical enrichment analysis: F-actin and PARD6 polarisation were measured in a single focal plane, by taking the middle plane of the aggregate. […] The apical/basal signal intensity ratio was calculated as: I (apical)/I (basal). […]

hEP-structures = assay: Frequency of cavitated structures in WNT3A-supplemented 3D culture; settings: day 6; WNT3A at 25 or 50 ng/mL added to culture media; vs control
Method: Post incubation on gelatin plates, cells were counted using a haemocytometer and a total of 7200 hEPSCs was added to 1 mL of media composed of 50% IVF media (Continuous Single Culture-NX Complete (CSCM-NXC)) (90168, FUJIFILM), 25% hEP media, and 25% hTS media. This media was also supplemented with CHIR99021 (2 μM), Y27632 (5 μM), BMP4 (20 ng/mL), FGF2 (40 ng/mL), and A83-01 (2 μM). Cell suspensions were added dropwise to the Aggrewells. All wells without cells were filled with 1 mL PBS to humidify the local atmosphere to minimize evaporation. The AggreWell plate (24-well, 1200 Aggrewell format) was then centrifuged for 3 min at 100 g, and placed at 37° C. under hypoxic conditions (5% CO2 and 5% O2). After 48h, media was removed from wells and replaced with fresh culture media as described above, although FGF2 concentration was lowered to 20 ng/ml and A83-01 was omitted. Cells were left to grow for an additional 48-72h until proper morphology was observed, at which point structures were fixed for immunostaining or transferred to IVC media (see below) for mimicking development beyond implantation stages.
Following completion of any given aggregation experiment (from day 4 to 6), all cystic structures clearly displaying a cavity were included in further analyses. Non-cavitated structures were excluded from downstream analyses.

`Cc1c[nH]c(-c2cnc(NCCNc3ccc(C#N)cn3)nc2-c2ccc(Cl)cc2Cl)n1` [CHIR99021] was tested, and the “cell survival in media without the substance” value (hEPSCs) was “failure of cell survival”.

In the case of `C[C@@H](N)[C@H]1CC[C@H](C(=O)Nc2ccncc2)CC1.Cl.Cl` [Y-27632, trans-4-[(R)-1-Aminoethyl]-N-4-pyridinylcyclohexanecarboxamide dihydrochloride], the “cell survival in media without the substance” value (hEPSCs) is reported as “failure of cell survival”.

With `COc1ccc2c(c1)CC[C@@H]1[C@@H]2CC[C@]2(C)[C@@H](NCCCCCCN3C(=O)C=CC3=O)CC[C@@H]12` [U73122] the “nuclear GATA3 signal intensity” value (hEPSC aggregates; normalized to DAPI) was “reduction” and the “apical enrichment of PARD6” value (hEPSC aggregates) was “decrease”.

B1: WNT3A: Wnt3a recombinant protein, WNT signaling pathway activator added to the culture media (protein, UniProt P56704 19-352, looked up)
Protein Wnt-3a: SYPIWWSLAVGPQYSSLGSQPILCASIPGLVPKQLRFCRNYVEIMPSVAEGIKIGIQECQHQFRGRRWNCTTVHDSLAIFGPVLDKATRESAFVHAIASAGVAFAVTRSCAEGTAAICGCSSRHQGSPGKGWKWGGCSEDIEFGGMVSREFADARENRPDARSAMNRHNNEAGRQAIASHMHLKCKCHGLSGSCEVKTCWWSQPDFRAIGDFLKDKYDSASEMVVEKHRESRGWVETLRPRYTYFKVPTERDLVYYEASPNFCEPNPETGSFGTRDRTCNVSSHGIDGCDLLCCGRGHNARAERRREKCRCVFHWCCYVSCQECTRVYDVHTCK
For B1, the “yield (frequency) of cavitated structures” value (hEP-structures) was “did not make any significant difference”.
